{"source": "ChEMBL document CHEMBL5120888", "about": "“Voratins A-C: Pyridinium Alkaloids from the Marine Dinoflagellate Effrenium voratum with Inhibitory Effects on Biomarkers for Benign Prostatic Hyperplasia” (J Nat Prod, 2022)", "key": {"RWPE-1 [1]": {"test_system": "RWPE-1", "assay": "Cytotoxicity against human RWPE-1 cells at 0.1 to 1 uM incubated for 24 hrs by MTT assay", "type": "toxicity, cell-based", "settings": "rwpe-1, 24 h, dose 0.1-1 µM"}, "LNCaP [2]": {"test_system": "LNCaP", "assay": "Inhibition of testosterone propionate induced AR expression in human LNCaP cells pretreated with TP for 1 hr followed by compound addition at 1 to 10 uM by Western blotting analysis", "type": "functional, cell-based", "settings": "dose 1-10 µM"}, "LNCaP [3]": {"test_system": "LNCaP", "assay": "Inhibition of testosterone propionate induced PSA expression in human LNCaP cells pretreated with TP for 1 hr followed by compound addition at 1 to 10 uM by Western blotting analysis", "type": "functional, cell-based", "settings": "dose 1-10 µM"}, "[4]": {"assay": "Inhibition of testosterone propionate induced 5AR2 expression in human LNCaP cells pretreated with TP for 1 hr followed by compound addition at 10 uM by Western blotting analysis", "type": "functional"}, "[5]": {"assay": "Inhibition of testosterone propionate induced PSA expression in human LNCaP cells pretreated with TP for 1 hr followed by compound addition at 10 uM by Western blotting analysis", "type": "functional"}, "LNCaP [6]": {"test_system": "LNCaP", "assay": "Suppression of testosterone propionate induced 5AR2 expression in human LNCaP cells pretreated with TP for 1 hr followed by compound addition at 10 uM by Western blotting analysis", "type": "functional, cell-based"}, "LNCaP [7]": {"test_system": "LNCaP", "assay": "Suppression of testosterone propionate induced PSA expression in human LNCaP cells pretreated with TP for 1 hr followed by compound addition at 10 uM by Western blotting analysis", "type": "functional, cell-based"}, "LNCaP [8]": {"test_system": "LNCaP", "assay": "Suppression of testosterone propionate induced AR expression in human LNCaP cells pretreated with TP for 1 hr followed by compound addition at 10 uM by Western blotting analysis", "type": "functional, cell-based"}, "[9]": {"assay": "Inhibition of testosterone propionate induced PSA expression in human RWPE-1 cells pretreated with TP for 1 hr followed by compound addition at 1 to 10 uM by Western blotting analysis", "type": "functional", "parameters": "scale not given: the % may be the effect or the level left", "settings": "dose 1-10 µM"}, "RWPE-1 [10]": {"test_system": "RWPE-1", "assay": "Inhibition of testosterone propionate induced PCNA expression in human RWPE-1 cells pretreated with TP for 1 hr followed by compound addition at 1 to 10 uM by Western blotting analysis", "type": "functional, cell-based", "settings": "dose 1-10 µM"}}, "note": "The source made the active and inactive calls. The calls are words filed in the database; no cut-off is given here.", "data": [{"smiles": "C=C1C[C@H](C(=O)[O-])O[C@@]2(C1)C[C@@H](C)C[C@H]([C@@H](O)c1cccc3[n+]1CC[C@H]3C)O2", "values": [{"measurement": "Activity", "setting": "RWPE-1 [1]", "value": "Non-Toxic"}, {"measurement": "inhibition", "setting": "LNCaP [2]", "value": "Active"}, {"measurement": "inhibition", "setting": "LNCaP [3]", "value": "Active"}]}, {"smiles": "C=C1C[C@H](C(=O)[O-])O[C@@]2(C1)C[C@@H](C)C[C@H]([C@@H](O)c1cccc3[n+]1CC[C@@H]3C)O2", "values": [{"measurement": "inhibition at 10 µM", "setting": "[4]", "value": 53, "unit": "%"}, {"measurement": "Activity", "setting": "RWPE-1 [1]", "value": "Non-Toxic"}, {"measurement": "inhibition", "setting": "LNCaP [2]", "value": "Active"}, {"measurement": "inhibition at 10 µM", "setting": "[5]", "value": 53, "unit": "%"}]}, {"smiles": "CC(C)(C)NC(=O)[C@H]1CC[C@H]2[C@@H]3CC[C@H]4NC(=O)C=C[C@]4(C)[C@H]3CC[C@]12C", "values": [{"measurement": "Activity", "setting": "LNCaP [6]", "value": "Active"}, {"measurement": "Activity", "setting": "LNCaP [7]", "value": "Active"}, {"measurement": "Activity", "setting": "LNCaP [8]", "value": "Active"}]}, {"smiles": "C[C@@H]1C[C@H]([C@@H](O)c2cccc3[n+]2CC[C@@H]3C)O[C@@]2(CC[C@H](C(=O)[O-])O2)C1", "values": [{"measurement": "inhibition at 10 µM", "setting": "[4]", "value": 61, "unit": "%"}, {"measurement": "Activity", "setting": "RWPE-1 [1]", "value": "Non-Toxic"}, {"measurement": "Activity", "setting": "[9]", "value": 65, "unit": "%"}, {"measurement": "inhibition", "setting": "LNCaP [2]", "value": "Active"}, {"measurement": "inhibition", "setting": "RWPE-1 [10]", "value": "Active"}, {"measurement": "inhibition at 10 µM", "setting": "[5]", "value": 61, "unit": "%"}, {"measurement": "inhibition", "setting": "LNCaP [3]", "value": "Active"}]}]}
